We go through 14 compounds from patent publication US7728131B2, “Amide derivative and medicine” (Nippon Shinyaku Co., Ltd., priority 2003, dated 2010).

The subject of one series is U937 cells. The series is described as follows: Cell growth inhibitory effect, U937 cells (Cell counting Kit-8, 72 hours). It is filed as cell-based. The conditions noted are these: Homo sapiens, U-937, BCR-ABL negative U937 cells, WST-8 absorbance. The method, then: The plate was incubated in a CO2 incubator overnight. […] The plate was incubated in a CO2 incubator. After 72 hours, 20 μl

For the next series, the system named is K562 cells. In words: Cell growth inhibitory effect, K562 cells (Cell counting Kit-8, 72 hours).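 For all read-outs here: Read-out is formazan absorbance at 450 nm from WST-8 reduction after a 3 h color reaction, with K562 and U937 cells grown in 96-well plates.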 The conditions noted are these: for IC50: Homo sapiens, K562, 72 h, read-out: K562 cells (IC50 value: μM); for Ratio (U937 cells/K562 cells): IC50 U937 cells / IC50 K562 cells. A general note: Tetrazolium assays rely on reduction of a dye to a coloured formazan, in cell work by metabolically active cells.

[1] abbreviates: continuation of Table 3, read-out: U937 cells (IC50 value: nμM).
Setting [2] is: read-out: U937 cells (IC50 value: μM).

Like-named read-outs stand apart in the source and are kept apart here.

Description for K562 cells: of Cell counting Kit-8 (5 mmol/l WST-8, 0.2 mmol/1 1-Methoxy PMS, 150 mmol/l NaCl) (manufactured by Dojindo) was added to each well. After reaction for color development in a CO2 incubator for 3 hours, an absorbance of formazan, generated by reduction of WST-8 was determined at 450 nm using Multi-level counter ARVOsx (manufactured by Wallac).
K562 cells and U937 cells (purchased from American Type Culture Collection) were cultured in a RPMI-1640 medium (manufactured by Sigma) containing 10% (v/v) fetal calf serum (FCS) (manufactures by Sigma) (RPMI-1640/FCS). K562 cells and U937 cells were seeded at a density of 5000 cells/100 μl/well and 4000 cells/100 μl/well in each of 96-hole-plate (manufactured by costar), respectively. The plate was incubated in a CO2 incubator overnight. […] The resulting solution was diluted 500 times in a RPMI-1640/FCS medium and then 100 μl of the diluent was added in a well. The plate was incubated in a CO2 incubator. After 72 hours, 20 μl

`CCN(CC)[C@H]1CCN(Cc2ccc(C(=O)Nc3ccc(C)c(Nc4nccc(-c5cncnc5)n4)c3)cc2C(F)(F)F)C1.Cl` [Example 57, (−)-4-[(S)-3-(N,N-diethylamino)pyrrolidin-1-ylmethyl]-3-trifluoromethyl-N-{4-methyl-3-[4-(5-pyrimidinyl)pyrimidin-2-ylamino]phenyl}benzamide hydrochloride]: the melting point (commonly the temperature, or range, at which the solid turns liquid) fell in the range of 200 to 202 °C. Besides, the IC50 – broadly, the midpoint of a concentration-inhibition curve – in the series on U937 cells (setting [1]) was 5.6 µM. In addition, in the series on K562 cells, the IC50 was found to be 0.0058 µM and the “Ratio (U937 cells/K562 cells)” value stood at 966.

On to `Cc1ccc(NC(=O)c2ccc(CN3CCNCC3)c(C(F)(F)F)c2)cc1Nc1nccc(-c2cncc(Br)c2)n1.Cl` [Example 40, 4-(1-piperazinylmethyl)-3-trifluoromethyl-N-{3-[4-(5-bromopyridin-3-yl)pyrimidin-2-ylamino]-4-methylphenyl}benzamide hydrochloride], for which the melting point was 176 to 182 °C (dec.). For the same compound, the IC50 in the series on U937 cells (setting [1]) came out at 4.4 µM. In the series with K562 cells, the IC50 was 0.0039 µM and the “Ratio (U937 cells/K562 cells)” value was determined as 1128.

The compound `Cc1ccc(NC(=O)c2ccc(CN3CCN(C)C(C(N)=O)C3)c(C(F)(F)F)c2)cc1Nc1nccc(-c2cncnc2)n1.Cl` (centres unmarked) [Example 50, 4-(3-carbamoyl-4-methylpiperazin-1-ylmethyl)-3-trifluoromethyl-N-{4-methyl-3-[4-(5-pyrimidinyl)pyrimidin-2-ylamino]phenyl}benzamide hydrochloride] had a melting point of 203 to 208 °C. Besides, the half-inhibitory concentration (IC50) with U937 cells (setting [1]) worked out at 16 µM. In the series with K562 cells, the IC50 was determined as 0.0046 µM and the “Ratio (U937 cells/K562 cells)” value worked out at 3478.

Take `CCN1CCN(Cc2ccc(C(=O)Nc3ccc(C)c(Nc4nccc(-c5cncc(Br)c5)n4)c3)cc2C(F)(F)F)CC1.Cl` [Example 18, 4-(4-ethylpiperazin-1-ylmethyl)-3-trifluoromethyl-N-{3-[4-(5-bromopyridin-3-yl)pyrimidin-2-ylamino]-4-methylphenyl}benzamide hydrochloride]: the melting point is 166 to 172 °C (dec.). Moreover, the IC50 with U937 cells (setting [2]) was determined as 4.6 µM. In addition, in the series on K562 cells, the IC50 is 0.0048 µM and the “Ratio (U937 cells/K562 cells)” value is listed as 958.

The compound `Cc1ccc(NC(=O)c2ccc(CN3CCC[C@H](N)C3)c(C(F)(F)F)c2)cc1Nc1nccc(-c2cncnc2)n1.Cl` [Example 62, (+)-4-((S)-3-aminopiperidinomethyl)-3-trifluoromethyl-N-{4-methyl-3-[4-(5-pyrimidinyl)pyrimidin-2-ylamino]phenyl}benzamide hydrochloride] showed a melting point of 193 to 199 °C. In addition, the 50% inhibitory concentration (IC50) in the series on U937 cells (setting [1]) came to 1.6 µM. In the series on K562 cells, the IC50 was found to be 0.0014 µM and the “Ratio (U937 cells/K562 cells)” value worked out at 1143.

For `Cc1ccc(NC(=O)c2ccc(C=C3CCN(C)CC3)c(C(F)(F)F)c2)cc1Nc1nccc(-c2cncnc2)n1.Cl` [Example 6, 4-(1-methylpiperidin-4-ylidenemethyl)-3-trifluoromethyl-N-{4-methyl-3-[4-(5-pyrimidinyl)pyrimidin-2-ylamino]phenyl}benzamide hydrochloride], the melting point is 202 to 206 °C (dec.). Further, the IC50 with U937 cells (setting [2]) stood at 4.3 µM. In the series with K562 cells, the IC50 came to 0.0012 µM and the “Ratio (U937 cells/K562 cells)” value turned out to be 3583.

On to `Cc1ccc(NC(=O)c2ccc(OC3CCN(C)CC3)c(C(F)(F)F)c2)cc1Nc1nccc(-c2cncnc2)n1.Cl` [Example 10, 4-(1-methylpiperidin-4-yloxy)-3-trifluoromethyl-N-{4-methyl-3-[4-(5-pyrimidinyl)pyrimidin-2-ylamino]phenyl}benzamide hydrochloride], for which the melting point is no less than 275 °C. For the same compound, in the series with U937 cells (setting [2]), the IC50 turned out to be 8.1 µM. In the series on K562 cells, the IC50 was 0.0021 µM and the “Ratio (U937 cells/K562 cells)” value stood at 3857.

In turn, `Cc1ccc(NC(=O)c2ccc(CN3CCN(C)[C@@H](C)C3)c(C(F)(F)F)c2)cc1Nc1nccc(-c2cncnc2)n1.Cl` [Example 69, (−)-4-((S)-3,4-dimethylpiperazin-1-ylmethyl)-3-trifluoromethyl-N-{4-methyl-3-[4-(5-pyrimidinyl)pyrimidin-2-ylamino]phenyl}benzamide hydrochloride] yielded a melting point of 187 to 193 °C. Further, the IC50 in the series on U937 cells (setting [1]) is 10 µM. In addition, in the series with K562 cells, the IC50 was determined as 0.0022 µM and the “Ratio (U937 cells/K562 cells)” value was 4545.

For `Cc1ccc(NC(=O)c2ccc(CN3CC[C@@H](CN(C)C)C3)c(C(F)(F)F)c2)cc1Nc1nccc(-c2cncnc2)n1.Cl` [Example 81, 4-[(S)-3-(dimethylaminomethyl)pyrrolidin-1-ylmethyl]-3-trifluoromethyl-N-{4-methyl-3-[4-(5-pyrimidinyl)pyrimidin-2-ylamino]phenyl}benzamide hydrochloride], the melting point was 114 to 122 °C (dec.). In the series on U937 cells (setting [1]), the IC50 is greater than 100 µM. Besides, in the series on K562 cells, the IC50 amounted to 0.0047 µM and the “Ratio (U937 cells/K562 cells)” value was greater than 27778.

Consider `Cc1ccc(NC(=O)c2ccc(CN3CCN(C)CC3)c(C(F)(F)F)c2)cc1Nc1nc(-c2ccncc2)cs1.Cl` [Example 75, 4-(4-methylpipiperazin-1-ylmethyl)-3-trifluoromethyl-N-{4-methyl-3-[4-(4-pyridyl)thiazol-2-ylamino]phenyl}benzamide hydrochloride], for which the melting point is 186 to 188 °C. Also, the IC50 in the series on U937 cells (setting [1]) came to 2.7 µM. In the series with K562 cells, the IC50 was found to be 0.0059 µM and the “Ratio (U937 cells/K562 cells)” value was 458.

On to `Cc1ccc(NC(=O)c2ccc(CN3CCN(C)CC3)c(C(F)(F)F)c2)cc1Nc1cc(-c2cncnc2)ccn1.Cl` [Example 23, 4-(4-methylpiperazin-1-ylmethyl)-3-trifluoromethyl-N-{4-methyl-3-[4-(5-primidinyl)pyridin-2-ylamino]phenyl}benzamide hydrochloride], for which the melting point was 203 to 206 °C (dec.). In addition, in the series with U937 cells (setting [1]), the IC50 came out at 5 µM. In the series on K562 cells, the IC50 came out at 0.0011 µM and the “Ratio (U937 cells/K562 cells)” value is 4545.

Turning to `Cc1ccc(NC(=O)c2ccc(CN3CCN(Cc4oc(=O)oc4C)CC3)c(C(F)(F)F)c2)cc1Nc1nccc(-c2cncnc2)n1.Cl` [Example 73, 4-{4-[(5-methyl-2-oxo-1,3-dioxol-4-yl)methyl]piperazin-1-ylmethyl}-3-trifluoromethyl-N-{4-methyl-3-[4-(5-pyrimidinyl)pyrimidin-2-ylamino]phenyl}benzamide hydrochloride], the melting point is 218 to 226 °C (dec.). Also, the IC50 in the series on U937 cells (setting [1]) was found to be 9.7 µM. Moreover, in the series with K562 cells, the IC50 amounted to 0.0023 µM and the “Ratio (U937 cells/K562 cells)” value stood at 4217.

With `Cc1ccc(NC(=O)c2ccc(CN3CCN(C)CC3)c(Cl)c2)cc1Nc1nccc(-c2cncnc2)n1.Cl` [Example 20, 3-chloro-4-(4-methylpiperazin-1-ylmethyl)-N-{4-methyl-3-[4-(5-pyrimidinyl)pyrimidin-2-ylamino]phenyl}benzamide hydrochloride], the melting point lay within 197 to 200 °C. In addition, the IC50 in the series on U937 cells (setting [1]) was determined as 29 µM. Moreover, in the series with K562 cells, the IC50 worked out at 0.0026 µM and the “Ratio (U937 cells/K562 cells)” value was 11154.

For `Cc1ccc(NC(=O)c2ccc(CN3CCNC(C(N)=O)C3)c(C(F)(F)F)c2)cc1Nc1nccc(-c2cncnc2)n1.Cl` (centres unmarked) [Example 45, 4-(3-carbamoylpiperazin-1-ylmethyl)-3-trifluoromethyl-N-{4-methyl-3-[4-(5-pyrimidinyl)pyrimidin-2-ylamino]phenyl}benzamide hydrochloride], the melting point was in the range of 205 to 208 °C. Also, in the series on U937 cells (setting [1]), the IC50 was 15 µM. Also, in the series with K562 cells, the IC50 is 0.0031 µM and the “Ratio (U937 cells/K562 cells)” value is 4839.
